We go through three compounds from patent US12145913B2, “Inhibition of Olig2 activity” (Curtana Pharmaceuticals, Inc., priority 2016, dated 2024).

In data set [1] the test system is Human GBM4 glioblastoma flank tumor. The data set is described as follows: Tumor growth inhibition in mouse flank tumor model, GBM4. It counts as in vivo. The following applies: NSG mice. The procedure: (§1) The animals were fed ad libitum water (reverse osmosis, 1 ppm Cl) and NIH 31 Modified and Irradiated Lab Diet® consisting of 18.0% crude protein. 5.0% crude fat, and 5.0% crude fiber. The mice were housed on irradiated Enrich-o'Cobs™ bedding in static microisolators on a 12-hour light cycle at 20-22° C. (68-72° F.) and 40-60% humidity.
(§2) Human GBM4 or GBM8 glioblastoma cell lines were maintained in Complete NeuroCult Proliferation Medium containing 20 ng/mL EGF, 10 ng/mL bFGF and 2 μg/mL Heparin. The cells were cultured in ultra low attachment T75 flask (Corning REF-3814) and the resulting neurospheres were dissociated every 4-6 days using the NeuroCult Chemical Dissociation kit (Stemcell Technologies Cat #05707). Cell cultures were maintained in tissue culture flasks in a humidified incubator at 37° C., in an atmosphere of 5% CO2 and 95% air. Cell samples were collected one passage prior to cell implant and preserved in freezing media.
Cells used for implantation were harvested during log phase growth and resuspended in cold PBS containing in 50% Matrigel™ (BD Biosciences). Tumor growth was initiated on Day 1 by subcutaneous injection of GBM4 cells into the right flank of each mouse with 1×10^7 tumor cells (0.1 mL cell suspension) and tumor growth was monitored in four groups (n=8) beginning on Day 12. Groups for treatment included group 1 (vehicle), group 2 (test Olig2 inhibitor), group 3 (treatment with temozolomide and radiation) and group 4 (test Olig2 inhibitor combined with temozolomide and radiation). The tumors were measured with a caliper in two dimensions to monitor size. Tumor size was calculated using the formula. […] Tumor weight may be estimated with the assumption that 1 mg is equivalent to 1 mm^3 of tumor volume Tumors were measured with a caliper twice weekly for the duration of the study Temozolomide (Merck & Co., Lot No. L046487) was administered orally at doses of 5 mg/kg or 10 mg/Kg). […]
The study endpoint was a tumor volume of 2000 mm^3 or Day 152, whichever came first. […] The time to endpoint (TTE) for each animal was calculated with the following equation: […]

Data set [2] concerns Human GBM8 glioblastoma flank tumor. Briefly: Tumor growth inhibition in mouse flank tumor model, GBM8. Type of data set: in vivo. The following applies: NSG mice; for Compound + Temozolomide + radiation (median TTE): combined with temozolomide and radiation; for Compound (median TTE): compound alone. As for the experimental part: as §1, §2
Cells used for implantation were harvested during log phase growth and resuspended in cold PBS containing in 50% Matrigel™ (BD Biosciences). Tumor growth was initiated on Day 1 by subcutaneous injection of GBM4 cells into the right flank of each mouse with 1×10^7 tumor cells (0.1 mL cell suspension) and tumor growth was monitored in four groups (n=8) beginning on Day 12. Groups for treatment included group 1 (vehicle), group 2 (test Olig2 inhibitor), group 3 (treatment with temozolomide and radiation) and group 4 (test Olig2 inhibitor combined with temozolomide and radiation). The tumors were measured with a caliper in two dimensions to monitor size. Tumor size was calculated using the formula. Tumor Volume (mm^3)=[…]: where w=width and l=length, in mm, of a tumor. Tumor weight may be estimated with the assumption that 1 mg is equivalent to 1 mm^3 of tumor volume Tumors were measured with a caliper twice weekly for the duration of the study Temozolomide (Merck & Co., Lot No. L046487) was administered orally at doses of 5 mg/kg or 10 mg/Kg). Radiation was adminstered with a Faxitron model CP-160 X-ray system. Each animal was immobilized in a live restrainer. Therapy was administered for 1.3 min at 160 KV and 6.0 mA, providing a dose of 1 gray (Gy) for each animal.
The study endpoint was a tumor volume of 2000 mm^3 or Day 152, whichever came first. Each animal was euthanized for tumor progression (TP) when its tumor reached the volume endpoint. The time to endpoint (TTE) for each animal was calculated with the following equation: […]
The data set is comprised of the first observation that exceeded the study endpoint volume and the three consecutive observations that immediately preceded the attainment of the endpoint volume. […] In instances in which the log-transformed calculated TTE preceded the day prior to reaching endpoint or exceeded the day of reaching tumor volume endpoint, a linear interpolation was performed to approximate the TTE. Any animal determined to have died from treatment-related (TR) causes was assigned a TTE value equal to the day of death. […]
Treatment outcome was evaluated from tumor growth delay (TGD), which was defined as the increase in the median TTE for a treatment group compared to the control group: TGD=T−C, expressed in days, or as a percentage of the median TTE of the control group: TGD(%)=T−C/C×100 • T=median TTE for a treatment group, • C=median TTE for the control group.

A short description of data set [3]: Solubility of compound 174 in DI water. It counts as physicochemical. The conditions noted are these: thermodynamic from solid, 2 determinations, read-out: Estimated solubility. The procedure: Into a 1 dram vial was added a sample of compound 174. DI water was added until the solid was fully dissolved. Solubility was estimated from the amount of solid per mL of water added. Estimated solubility ˜30 mg/mL (2 determinations).

For data set [4], the system named is GBM4 human glioblastoma cells. Briefly: GBM4 viability assay (Cell Titer Glo). Type of data set: cell-based. The following applies: Table 3, GBM4 cells, read-out: GBM4 IC50 (Cytotoxicity). The procedure:
Cell culture medium was prepared from a NSA proliferation kit (Neurocult) and NeuroCult supplements (Stemcell Tech Cat. #05751) and treated with 20 μL of 10 μg/mL rh EGF, 10 μL of 10 μg/mL rh bFGF and 10 μL of 0.2% Heparin. In this medium, human glioblastoma cells were cultured in ultra-low attachment tissue culture flasks until 1×10^6 cells ml was achieved (GBM4 and GBM8 are distinct neurosphere cell cultures derived from these human patient tissues). GBM4 and GBM8 cells were dissociated and 10 mL of media containing 4000 human glioblastoma cells per 90 μL were transferred to an ultra-low binding 96-well plate and incubated at 37° C. overnight. On the following day, 10 μL of a 1% DMSO solution of test compound in assay medium was added to wells containing the cell suspension and the mixture incubated at 37° C. for 3 days. At this time, the plate was removed from the incubator and allowed to reach room temperature. After about 30 minutes, 50 μL of Cell Titer Glo solution was added to each well and the plate shaken for 1 minute at low speed. After 10 minutes luminescence was recorded using a Tecan Safire2 reader.
Reduction in luminescence compared to DMSO only control wells was used to determine the percentage inhibition of cell growth. IC50s were calculated using the % inhibition of luminescence for serial dilutions of compounds fitted to a 4-parameter fit within the Prism (San Diego) curve fitting program. Tables 1 (compounds 3-188) and 2 (compounds 190-212) show the GBM4 IC50 and GBM8 IC50 for compounds described herein.
A general note: ATP-based viability assays read luminescence as a measure of living cells.

The subject of data set [5] is GBM8 human glioblastoma cells. Briefly: GBM8 viability assay (Cell Titer Glo). Type of data set: cell-based. The conditions noted are these: 72 h, Table 1, 3 days incubation, luminescence. The method in brief: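 Patient-derived GBM4 and GBM8 neurosphere cells, 4000 per well in EGF/bFGF/heparin-supplemented NeuroCult medium, were exposed to compound (added in 1% DMSO solution) for 3 days at 37° C. Growth was read by CellTiter-Glo luminescence versus DMSO wells, and IC50s came from 4-parameter fits of serial dilutions.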

Data set [6] deals with G06 patient-derived glioblastoma cells, intracranial. Briefly: Survival in orthotopic glioblastoma mouse model, G06. It counts as in vivo. The conditions noted are these: athymic nude mice, oral daily from day 4, percent increase of median versus vehicle. An excerpt:
(§3) Patient-derived xenograft samples were used in this study as a more faithful representation of human glioblastoma compared to immortalized cell lines. The maintenance of patient-derived xenografts exclusively by serial passage in mice has been advocated as a means to faithfully preserve the genetic features of the original tumors. Tumor integrity is periodically confirmed by short tandem repeat assessment. These methods were used to obtain cell suspensions of G06 cells for use in vivo. Briefly, short-term cultured cells were injected into the flank of athymic nude mice (Nu/Nu: Envigo). Tumors grown in these mice were harvested and cultured to afford cell suspension for viability studies. Mice with tumors 1-1.5 cm^3 were euthanized using CO2. Tumors were swabbed with Betadine (Carefusion #29906-016) and excised with a sterile scalpel. The tumor sample was placed in a culture plate and broken up with a sterile syringe. […] The pellets were resuspended in Stem Cell Media to a concentration of […] as measured by a hemocytometer.
(§4) G06 or cultured GBM8 cells (3×10^5, 3 μL), were injected intracranially into anesthetized female athymic nude mice (Nu/Nu: Envigo). […] Animal counts and body weight were monitored daily. Survival improvement was measured as a percent increase of the median for drug treatment versus vehicle.

The subject of data set [7] is GBM8 cells, intracranial. The data set is described as follows: Survival in orthotopic glioblastoma mouse model, GBM8. Type of data set: in vivo. The following applies: athymic nude mice, oral daily from day 4, percent increase of median versus vehicle.
Text: as §3, §4

[8] abbreviates: temozolomide orally plus radiation 1 Gy.

“And” between values parts separate entries of the source, which are not always exact repeats. Identical values can stand only once. Counter-ions that a name gives are not always drawn. Bounds are passed on as bounds.

For the compound `Cn1nnc2c(C(N)=O)ncn2c1=O` [Temozolomide, reference compound], the “Temozolomide + radiation (median TTE)” value is 116.3 days in data set [1] (setting [8]); 86.2 days and 78 days in data set [2] (setting [8]).

Take `Cc1cc(NCCCN(C)C)nc(NC(=O)Nc2ccc(Cl)c(Cl)c2)n1` [Compound 174, 1-(3,4-dichlorophenyl)-3-(4-((3-(dimethylamino)propyl)amino)-6-methylpyrimidin-2-yl)urea dimethanesulfonic acid salt]: the solubility in data set [3] is about 30 mg/mL. The IC50 is 240 nM in data set [4] and under 500 nM in data set [5]. Also, the “Compound + Temozolomide + radiation (median TTE)” value in data set [1] (combined with temozolomide and radiation) is 152.0 days; in data set [2], over 140.0 days. In addition, the “Compound (median TTE)” value in data set [1] (compound alone, endpoint 2000 mm^3 or Day 152) stood at 73.0 days; in data set [2] it was 61.3 days. Further, the “G06: Estimated Median Survival Benefit (%)” value in data set [6] is given as 54%. Moreover, the “GBM8: Estimated Median Survival Benefit (%)” value in data set [7] was 48%.

`Cc1cc(N)nc(NC(=O)Nc2ccc(OC(F)(F)F)cc2)n1` [Compound 176, 1-(4-amino-6-methylpyrimidin-2-yl)-3-(4-(trifluoromethoxy)-phenyl)urea] showed a half-maximal inhibitory concentration (IC50) in data set [5] of under 500 nM. In data set [2], the “Compound + Temozolomide + radiation (median TTE)” value is 127.9 days and the “Compound (median TTE)” value was found to be 56.4 days. In data set [6], the “G06: Estimated Median Survival Benefit (%)” value is 46%. In addition, the “GBM8: Estimated Median Survival Benefit (%)” value in data set [7] is 72%.

Broadly, the solubility is how much of the substance goes into solution per volume. Usually IC50 stands for the concentration that gives 50% inhibition.
